2 molecules from patent publication US20180036355A1 (priority 2004, published 2018) can be followed below.

Test [1] has as its system μ receptors for the opioids (MOR). The test can be described thus: mRNA expression of the μ receptors for the opioids in epithelial cells stimulated by microorganisms (real-time PCR). Format: cell-based.
In test [2] the test system is CB1 cannabinoid receptors. Nature of the test: mRNA expression of the CB1 receptors in epithelial cells stimulated by microorganisms (real-time PCR). In kind it is cell-based.
The next test deals with CB2 receptors. The test can be described thus: mRNA expression of the CB2 receptors in epithelial cells stimulated by microorganisms (real-time PCR). Format: cell-based.
The test system of the next test is mu-opioid receptor (MOR). On the set-up: species or system Balb/c mice. To be noted: mouse, in vivo.
A further test relates to MOR. Nature of the test: MOR immunohistochemistry of colonic epithelial cells of mice. Format: in vivo, Balb/c mice. Particulars: mouse colon sections, 10^9 CFU once a day for fourteen days.
The next test concerns CB1. The test can be described thus: CB1 immunohistochemistry of colonic epithelial cells of mice. Particulars: mouse colon sections, 10^9 CFU once a day for fourteen days. In kind it is in vivo, Balb/c mice.
The next test concerns CB2. The test can be described thus: CB2 immunohistochemistry of colonic epithelial cells of mice. In kind it is in vivo, Balb/c mice. To be noted: mouse colon sections, 10^9 CFU once a day for fourteen days.
The subject of the next test is TNFα. The test can be described thus: Colonic TNF alpha mRNA expression in mice (real-time PCR). In kind it is in vivo, Balb/c mice.
For a further test, the system named is KC. The test can be described thus: Colonic KC mRNA expression in mice (real-time PCR). In kind it is in vivo, Balb/c mice.
In a further test the test system is IL-1β. The test can be described thus: Colonic IL-1 beta mRNA expression in mice (real-time PCR). In kind it is in vivo, Balb/c mice.
[3] abbreviates: Balb/c mice, oral 10^9 CFU during 15 days.
The mark [4] stands for this setting: mouse colon, 14 days of administration.

For the molecule `O=C(/C=C/c1ccc(O)c(O)c1)OCCc1ccccc1` [CAPE, caffeic acid phenetyl ester, reference compound], the “effect of NFkappaB pathway inhibition on the expression of MOR” value in test [1] (HT-29 cells pre-treated with CAPE, stimulated with L. acidophilus) is “did not induce modifications of the expression of MOR”.

Lactobacillus acidophilus: the “induction of the μ receptors for the opioids (in words)” value in [1] (ATCC HTB-38 epithelial cells (FIG. 1), comparator TNF-α 10 ng/ml) was “of the same order of magnitude as that obtained by TNF-α”. Further, the “increase in the basal expression level of the mRNA of the μ receptors for the opioids” value in test [1] (ATCC HTB-38 epithelial cells, after 3 hours' incubation (FIG. 1)) is on record as “approximately 1000 fold”. Besides, in [1] (HT-29 or Caco-2 cells, 100 bacteria/cell, from the first hour of incubation), the “MOR expression in the epithelial cells (in words)” value is reported as “strong MOR expression”. Further, the “increase in the basal expression level of the mRNA of CB1” value in [2] (ATCC HTB-38 epithelial cells, after 3 hours' incubation (FIG. 2)) is given as “approximately 1000 fold”. In addition, the CB1 expression in test [2] (HT-29 or Caco-2 cells, 100 bacteria/cell, 0 to 6 hours, p<0.05) is listed as 848±180. For the same molecule, the “increase in the basal expression level of the mRNA of the CB2 receptors” value with CB2 receptors (ATCC HTB-38 epithelial cells, after 3 hours' incubation (FIG. 3)) was “approximately 100 fold”. Moreover, in the test on CB2 receptors (HT-29 or Caco-2 cells, 100 bacteria/cell, 0 to 6 hours, p<0.01), the CB2 expression came to 1498±333. Moreover, in the test with mu-opioid receptor (MOR), the “increase of MOR mRNA expression in the colon vs untreated animals” value is 24 fold. The “expression of MOR mRNA at the colonic level” value with mu-opioid receptor (MOR) (po) worked out at 24±0.75. Moreover, the “epithelial stained cells for MOR” value with MOR was found to be 60±10%. In addition, the “epithelial stained cells for CB1” value with CB1 was determined as 60±8%. Further, the “epithelial stained cells for CB2” value with CB2 is recorded as 40±7%. The “diminution of the expression of colonic inflammatory cytokines (TNF alpha)” value in the test on TNFα (setting [3]) is given as “at least 50%”. The “decreased expression of TNFα mRNA level compared to controls” value in the test on TNFα (setting [4]) was “More than 50%”. Moreover, the “diminution of the expression of colonic inflammatory cytokines (KC)” value with KC (setting [3]) is recorded as “at least 50%”. The “decreased expression of KC mRNA level compared to controls” value in the test on KC (setting [4]) is given as “More than 50%”. In addition, the “diminution of the expression of colonic inflammatory cytokines (IL-1 beta)” value in the test on IL-1β (setting [3]) is reported as “at least 50%”. In addition, in the test on IL-1β (setting [4]), the “decreased expression of IL-1β mRNA level compared to controls” value is “More than 50%”.
